In the supplement of paper PMC6965134:
± gives the standard deviation of the averaged measurements.

Test: TIMS collisional cross section (CCS, N2) of the lipid ion; higher = larger ion cross section
Conditions: ionization mode: positive, one isomer drawn

TIMS collisional cross section (sample type: Liver) | TIMS collisional cross section (sample type: plasma) | TIMS collisional cross section (sample type: HeLa) | SMILES
299.2 Å² | – | – | CCCCCC/C=C\CCCCCCCC(=O)OC[C@@H](COC(=O)CCCCCCCCCCC)OC(=O)CCCCCCCCCCCCCCC [TG 12:0_16:0_16:1] (ion (formula + adduct): [C47H88O6+NH4] 1+)
308.7 Å² | 309.2 Å² | – | CCCCC/C=C\C/C=C\C/C=C\CCCCC(=O)OC[C@@H](COC(=O)CCCCCCCCCCCCC)OC(=O)CCCCCCC/C=C\C/C=C\CCCCC [TG 14:0_18:2_18:3] (ion (formula + adduct): [C53H92O6+NH4] 1+)
324.9 Å² | – | – | CC/C=C\C/C=C\C/C=C\C/C=C\C/C=C\C/C=C\CCC(=O)OC[C@@H](COC(=O)CCCCCCC/C=C\C/C=C\CCCCC)OC(=O)CCCCCCC/C=C\C/C=C\C/C=C\CC [TG 18:2_18:3_22:6] (ion (formula + adduct): [C61H96O6+NH4] 1+)
– | 332.4 Å² | 332.1 Å² | CCCCCCCC/C=C\CCCCCCCCCC(=O)OC[C@@H](COC(=O)CCCCCCC/C=C\CCCCCCCC)OC(=O)CCCCCCC/C=C\CCCCCCCC [TG 18:1_18:1_20:1] (ion (formula + adduct): [C59H108O6+NH4] 1+)
277.5 Å² | – | 276.9 Å² | CCCCCCCCCCCCC/C=C/[C@@H](O)[C@H](CO)NC(=O)CCCCCCCCCCCCCCCCCCCCCC [Cer d18:1_23:0@] (ion (formula + adduct): [C41H81NO3+H] 1+)
– | – | 321.9 Å² | CC/C=C\C/C=C\C/C=C\C/C=C\C/C=C\CCCCCC(=O)OC[C@@H](COC(=O)CCCCCCCCCCCCCCC)OC(=O)CCCCCCC/C=C\CCCCCC [TG 16:0_16:1_22:5] (ion (formula + adduct): [C57H98O6+NH4] 1+)
309 Å² | – | 309.1 Å² | CCCCCCC/C=C\CCCCCCCC(=O)OC[C@@H](COC(=O)CCCCCCCCCCCCC)OC(=O)CCCCCCCCCCCCCCC [TG 14:0_16:0_17:1] (ion (formula + adduct): [C50H94O6+NH4] 1+)
340.7 Å² | – | – | CC/C=C\C/C=C\C/C=C\C/C=C\C/C=C\C/C=C\CCC(=O)OC[C@@H](COC(=O)CCCCCCCCCCCCCCC)OC(=O)CCCCCCCCCCCCCCCCCCCCC [TG 16:0_22:0_22:6] (ion (formula + adduct): [C63H110O6+NH4] 1+)
– | – | 323 Å² | CCCCC/C=C\C/C=C\C/C=C\C/C=C\CCCC(=O)OC[C@@H](COC(=O)CCCCCCC/C=C\CCCCCC)OC(=O)CCC/C=C\C/C=C\C/C=C\C/C=C\CCCCC [TG 16:1_20:4_20:4] (ion (formula + adduct): [C59H96O6+NH4] 1+)
336.3 Å² | – | 335.9 Å² | CCCCCCCC/C=C\CCCCCCCC(=O)O[C@H](COC(=O)CCCCCCCCCCCCCCC)COC(=O)CCCCCCCCCCCCCCCCCCCCC [TG 16:0_18:1_22:0] (ion (formula + adduct): [C59H112O6+NH4] 1+)
285.5 Å² | – | – | CCCCCCCC/C=C\CCCCCCCCCC(=O)O[C@H](COC(=O)CCCCCCC/C=C\CCCCCCCC)COP(=O)(O)OCCN [PE 18:1_20:1@] (ion (formula + adduct): [C43H82NO8P+H] 1+)
– | 255.9 Å² | – | CCCCCCCC/C=C\CCCCCCCC(=O)O[C@@H](CO)COC(=O)CCCCCCCCCCCCC [DG 14:0_18:1_0:0] (ion (formula + adduct): [C35H66O5+NH4] 1+)
– | – | 285.3 Å² | CC/C=C\C/C=C\C/C=C\C/C=C\C/C=C\C/C=C\CCC(=O)O[C@H](COC(=O)CCCCCCCCCCCCC)COP(=O)([O-])OCC[N+](C)(C)C [PC 14:0_22:6@] (ion (formula + adduct): [C44H76NO8P+H] 1+)
– | – | 278.9 Å² | CCCCCC/C=C\CCCCCCCC(=O)O[C@H](COC(=O)CCCCCCCCCCCCCC)COP(=O)([O-])OCC[N+](C)(C)C [PC 15:0_16:1] (ion (formula + adduct): [C39H76NO8P+H] 1+)
– | 287.3 Å² | – | CCCCC/C=C\C/C=C\CCCCCCCC(=O)O[C@H](COCCCCCCCCCCCCCCCC)COP(=O)([O-])OCC[N+](C)(C)C [PC O- 16:0@_18:2] (ion (formula + adduct): [C42H82NO7P+H] 1+)
– | – | 288.7 Å² | CCCCCCCC/C=C\CCCCCCCC(=O)O[C@H](COC(=O)CCCCCCCCCCCCCCC)COP(=O)([O-])OCC[N+](C)(C)C [PC 16:0_18:1] (ion (formula + adduct): [C42H82NO8P+Na] 1+)
334.4 Å² | – | – | CCCCC/C=C\C/C=C\CCCCCCCC(=O)O[C@H](COC(=O)CCCCCCC/C=C\CCCCCCCC)COC(=O)CCCCCCCCCCCCCCCCCCCC [TG 18:1_18:2_21:0] (ion (formula + adduct): [C60H110O6+NH4] 1+)

TIMS collisional cross section (sample type: Liver) | TIMS collisional cross section (sample type: plasma) | TIMS collisional cross section (sample type: HeLa) | SMILES
– | – | 334.6 Å² | CC/C=C\C/C=C\C/C=C\C/C=C\C/C=C\C/C=C\CCC(=O)OC[C@@H](COC(=O)CCCCCCC/C=C\CCCCCCCC)OC(=O)CCCCCCC/C=C\CCCCCCCCC [TG 18:1_19:1_22:6] (ion (formula + adduct): [C62H104O6+NH4] 1+)
– | 208.3 Å² | – | CCCCC/C=C\C/C=C\C/C=C\CCCCC(=O)OC[C@@H](O)COP(=O)(O)OCCN [LPE 18:3] (ion (formula + adduct): [C23H42NO7P+H] 1+)
– | – | 332 Å² | CCCCC/C=C\C/C=C\C/C=C\CCCCCCCCC(=O)OC[C@@H](COC(=O)CCCCCCC/C=C\CCCCCCC)OC(=O)CCCCCCC/C=C\CCCCCCCC [TG 17:1_18:1_22:3] (ion (formula + adduct): [C60H106O6+NH4] 1+)
– | – | 289.4 Å² | CC/C=C\C/C=C\C/C=C\C/C=C\CCCCC(=O)O[C@H](COC(=O)CCCCCCC/C=C\CCCCCCCC)COP(=O)([O-])OCC[N+](C)(C)C [PC 18:1@_18:4] (ion (formula + adduct): [C44H78NO8P+H] 1+)
282.3 Å² | 282.3 Å² | 282.63 ± 1.3 Å² | CCCCCC/C=C\CCCCCCCC(=O)O[C@H](COC(=O)CCCCCCCCCCCCCCC)COP(=O)([O-])OCC[N+](C)(C)C [PC 16:0_16:1] (ion (formula + adduct): [C40H78NO8P+H] 1+)
– | 296.7 Å² | – | CCCCC/C=C\C[C@H](O)/C=C/C=C\C/C=C\CCCC(=O)O[C@H](COC(=O)CCCCCCCCCCCCCCCCC)COP(=O)([O-])OCC[N+](C)(C)C [Oxidized PC 18:0_20:4] (ion (formula + adduct): [C46H84NO9P+H] 1+)
301.4 Å² | – | 301.7 Å² | CCCCCCCCCCCCCCCC(=O)OC[C@@H](COC(=O)CCCCCCCCCCCC)OC(=O)CCCCCCCCCCCCCC [TG 13:0_15:0_16:0] (ion (formula + adduct): [C47H90O6+NH4] 1+)
– | 290.5 Å² | – | CCCCCCCC/C=C\C/C=C\C/C=C\CCCC(=O)O[C@H](COC(=O)CCCCCCCCCCCCCCC)COP(=O)([O-])OCC[N+](C)(C)C [PC 16:0_20:3] (ion (formula + adduct): [C44H82NO8P+H] 1+)
329.2 Å² | – | – | CCCCC/C=C\C/C=C\CCCCCCCC(=O)O[C@H](COC(=O)CCCCCCC/C=C\CCCCCCCC)COC(=O)CCCCCCCCCCCCCCCCCC [TG 18:1_18:2_19:0] (ion (formula + adduct): [C58H106O6+NH4] 1+)
312.4 Å² | – | – | CC/C=C\C/C=C\C/C=C\C/C=C\C/C=C\CCCC(=O)OC[C@@H](COC(=O)CCCCCCCCCCCCC)OC(=O)CCCCCCC/C=C\C/C=C\CCCCC [TG 14:0_18:2_20:5] (ion (formula + adduct): [C55H92O6+NH4] 1+)
289.3 Å² | – | – | CCCCCCCC/C=C\CCCCCCCCCC(=O)O[C@H](COC(=O)CCCCCCCCCCCCCCCCC)COP(=O)(O)OCCN [PE 18:0_20:1] (ion (formula + adduct): [C43H84NO8P+H] 1+)
– | – | 315.8 Å² | CCCCCC/C=C\CCCCCCCC(=O)O[C@H](COC(=O)CCCCCCCCCCCCCCC)COC(=O)CCCCCCCCCCCCCCCC [TG 16:0_16:1_17:0] (ion (formula + adduct): [C52H98O6+NH4] 1+)
– | 214.45 ± 0.92 Å² | – | CCCCC/C=C\C/C=C\C/C=C\C/C=C\CCCC(=O)O[C@H](CO)COP(=O)(O)OCCN [LPE 20:4] (ion (formula + adduct): [C25H44NO7P+H] 1+)
288.5 Å² | – | – | CC/C=C\C/C=C\C/C=C\C/C=C\C/C=C\C/C=C\CCC(=O)O[C@H](COC(=O)CCCCCCC/C=C\CCCCCC)COP(=O)([O-])OCC[N+](C)(C)C [PC 16:1_22:6] (ion (formula + adduct): [C46H78NO8P+H] 1+)
266 Å² | – | 265.7 Å² | CCCCCCCC/C=C\CCCCCCCC(=O)O[C@@H](CO)COC(=O)CCCCCCCCCCCCCCCC [DG 17:0_18:1_0:0] (ion (formula + adduct): [C38H72O5+NH4] 1+)
298 Å² | – | – | CCCCC/C=C\C/C=C\C/C=C\C/C=C\CCCC(=O)O[C@H](COC(=O)CCCCCCCCCCCCCCCCCC)COP(=O)([O-])OCC[N+](C)(C)C [PC 19:0@_20:4] (ion (formula + adduct): [C47H86NO8P+H] 1+)
– | 286.9 Å² | 287.6 Å² | CCCCCCCCCCCCC/C=C/C=C/C(=O)OC[C@H](COP(=O)([O-])OCC[N+](C)(C)C)OC(=O)/C=C/C=C/CCCCCCCCCCCCC [PC 18:2_18:2] (ion (formula + adduct): [C44H80NO8P+H] 1+)

SMILES | TIMS collisional cross section (sample type: Liver) | TIMS collisional cross section (sample type: plasma) | TIMS collisional cross section (sample type: HeLa)
CCCCCCCCCCCCCCCCCCCC(=O)OC[C@@H](O)COP(=O)([O-])OCC[N+](C)(C)C [LPC 20:0_0:0] (ion (formula + adduct): [C28H58NO7P+H] 1+) | – | 245 Å² | –
